These are literature values, as cited in US20240252580A1, “AMINO ACID HYDRATION FORMULATION AND METHOD OF USE” (The Coca-Cola Company, priority 2021, published 2024).

Peptide text beside a SMILES is read from it.

The conditions of the data set: for effect on sodium and water absorption from the human jejunum: perfusion technique; for dependence of sodium and water absorption on amino acid concentration: saturation not demonstrated over the range of concentrations.

Take `C[C@H](NC(=O)CN)C(=O)O` [Gly-Ala, glycyl-L-alanine] (H-Gly-Ala-OH): the “effect on sodium and water absorption from the human jejunum” value (“effect on sodium and water absorption” below) was “significant stimulation”. For the compound `NCC(=O)NCC(=O)O` [Gly-Gly, glycyl-glycine] (H-Gly-Gly-OH), the “effect on sodium and water absorption” value is on record as “significant stimulation”. As to `C[C@H](N)C(=O)O` [alanine], the “effect on sodium and water absorption” value was “significant stimulation”; the “dependence of sodium and water absorption on amino acid concentration” value is “increased linearly with increasing concentration”. Take `NCC(=O)O` [glycine]: the “effect on sodium and water absorption” value is “significant stimulation”; the “dependence of sodium and water absorption on amino acid concentration” value is “increased linearly with increasing concentration”.
